# Data: patent US6048540A, “Acetamenophen composition with reduced liver toxicity” (Chong Kun Dang Corp., priority 1997, dated 2000)
# Key:
# [1] = low dose; cited from earlier work
# [2] = Stability test: content on storage and shelf life; settings: calculated with Arrehnius equation; component of prescription (b) of Example 2
Structure (SMILES),eliminated as unmetabolized form [1],Shelf life (time that content maintains more than 90% of initial at 25° C.) [2]
CC(=O)Nc1ccc(O)cc1 [Acetaminophen],about 2%,35.94 months
CSCCC(N)C(=O)O (racemic) [DL-Methionine],,35.64 months
Cn1c(=O)c2c(ncn2C)n(C)c1=O [Caffeine anhydrous],,89.84 months
N[C@@H](CC(=O)[O-])C(=O)[O-].O.[Na+].[Na+] [Sodium L-aspartate monohydrate],,33.86 months
